This data set is described as follows: gradient 5% acetonitrile 3 min, to 50% in 2 min, to 85% in 15 min, held 3 min, 100 µL/min. The conditions noted are these: column: Zorbax Extend-C18 2.1 x 50 mm; eluents: water / acetonitrile, 0.1% formic acid. A digest of the protocol:
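Mixtures of ~100 pure standards were chromatographed on a Zorbax Extend-C18 column (2.1 × 50 mm, 1.8 μm) at 100 μL/min using water and acetonitrile, each with 0.1% formic acid. Detection used a quadrupole time-of-flight mass spectrometer in positive and negative ionization mode, and data collection spanned 3 months. Retention time was obtained from adduct peaks picked computationally and each checked manually.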
On to `O=C1NCCCCCCN(C(=O)c2ccoc2)[C@H]2C[C@H](C(=O)N3CCc4ccccc4C3)C[C@@H]12`, for which the RP-LC retention time worked out at 762 s.

In turn, `Cn1c(-c2cccc(C(=O)NCc3ccc(F)cc3F)c2)nc2cccnc21` came in with an RP-LC retention time of 743 s.

In turn, `CCC(=O)N1CCc2cc(N3CC(C(=O)Nc4ccc(C)cc4C)CC3=O)ccc21` (stereo not drawn) returned an RP-LC retention time of 742 s.

In turn, `Cc1ccc(NC(=O)Cn2ncc3c(c2=O)N(CC2CC2)C(=O)CS3)cc1C` yielded an RP-LC retention time of 812 s.

Consider `CCSc1nnc(NC(=O)C2CCC(=O)N2S(=O)(=O)c2ccc(C)cc2)s1` (stereo not drawn), for which the RP-LC retention time was 855 s.

Molecule `Cn1cnc(S(=O)(=O)N2CCC(C(=O)Nc3ccc(F)c(Cl)c3)CC2)c1` had an RP-LC retention time of 762 s.

`Cc1ccc2ncn(C3CCN(S(=O)(=O)c4ccc(C)c(F)c4)CC3)c(=O)c2c1` registered an RP-LC retention time of 968 s.

In turn, `CCOc1ccc(Nc2c(-c3ccc(N(C)C)cc3)nc3cnccn23)cc1` had an RP-LC retention time of 813 s.

Regarding `COc1ccc(NC(=O)Cn2c(C)nc3c(sc4nc(-c5ccccc5)ccc43)c2=O)c(OC)c1`, the RP-LC retention time came to 1040 s.

With `COc1ccc(NC(=O)CN2CCc3[nH]c4c(C)cc(F)cc4c(=O)c3C2)c(OC)c1`, the RP-LC retention time is 631 s.

`CN1C(=O)C(C)(C)c2cc(S(=O)(=O)N3CCN(c4ccccn4)CC3)ccc21` came in with an RP-LC retention time of 633 s.

`CCOC(=O)N1CCN(C(=O)Cn2ccc3ccccc32)CC1` returned an RP-LC retention time of 731 s.

Molecule `COc1cccc(-n2c(=O)c(C(=O)Nc3ccccc3F)c(O)c3cccnc32)c1` yielded an RP-LC retention time of 1200 s.

The molecule `Cc1ccc(Nc2c(-c3ccccc3)nc3cnccn23)c(Br)c1` displayed an RP-LC retention time of 1040 s.

In turn, `CCNC(=O)C1CCc2sc(C(=O)N(CC)CC)cc2C1` (stereo not drawn) yielded an RP-LC retention time of 660 s.

Take `COc1ccc(C(=O)Nc2nc(-c3ccc4c(c3)NC(=O)CO4)cs2)cc1OC`: the RP-LC retention time was 801 s.

The molecule `COc1cccc(CNC(=O)C2(C)CCN(C(=O)Nc3ccc(Br)c(C)c3)CC2)c1` had an RP-LC retention time of 934 s.

`CN(C)C1CCCN(Cc2c(F)cccc2Cl)C1=O` (stereo not drawn) registered an RP-LC retention time of 604 s.

Turning to `Cc1ncc2c(n1)C[C@@H]1CC[C@H]2N1C(=O)c1cccnc1`, the RP-LC retention time amounted to 570 s.

`O=S(=O)(c1cccn2c(SCc3ccccc3F)nnc12)N1CCCC1` showed an RP-LC retention time of 803 s.

For the molecule `CCc1nnc(-c2ccc(S(=O)(=O)N3CCCCC3)o2)o1`, the RP-LC retention time amounted to 824 s.

`CSc1cccc(NC(=O)C2CCN(C(=O)c3ncn4c3COC(c3ccc(F)cc3)C4)CC2)c1` (stereo not drawn) returned an RP-LC retention time of 849 s.

The molecule `COc1ccc(Cl)cc1S(=O)(=O)N1CCCC(C(=O)NCCc2ccccc2)C1` (stereo not drawn) came in with an RP-LC retention time of 935 s.

`COc1ccc(NC(=O)C2c3cc(OC)c(OC)cc3C(=O)N(C)C2c2cccnc2)cc1Cl` (stereo not drawn) displayed an RP-LC retention time of 660 s.

Regarding `Cc1cc(C)c(C)c(S(=O)(=O)N2CCCC2c2nc(-c3ccc(F)cc3)no2)c1C` (stereo not drawn), the RP-LC retention time stood at 1310 s.

In the case of `C=CCN1C(=O)COc2ccc(-c3csc(NC(=O)C(C)(C)C)n3)cc21`, the RP-LC retention time stood at 964 s.

Molecule `CCCNc1nc(-c2nnc(-c3cccc(C)c3)o2)nc2ccccc12` returned an RP-LC retention time of 1000 s.

With `O=C(C1CCN(S(=O)(=O)c2cc(-c3noc(C4CCC4)n3)cs2)CC1)N1CCCCC1`, the RP-LC retention time was 971 s.

Molecule `Cc1ccc(NC(=O)Cn2c(=O)n(-c3ccccc3)c3ncccc32)c(C)c1` yielded an RP-LC retention time of 848 s.

As to `O=C(NCc1cccs1)c1ccc2c(c1)NC(=O)C1CCCCN21` (stereo not drawn), the RP-LC retention time was found to be 688 s.

`O=c1ccc(-c2nc(-c3ccncc3)no2)nn1Cc1ccc(Cl)cc1` gave an RP-LC retention time of 909 s.

Consider `O=C(Cn1nc2c3cc(Cl)ccc3ncn2c1=O)Nc1cccc(Cl)c1`, for which the RP-LC retention time is 730 s.

The molecule `Cn1c(=O)c(N2CCN(C(=O)c3cc(Cl)ccc3F)CC2)nc2ccncc21` displayed an RP-LC retention time of 560 s.

In turn, `CC(C(=O)N1CCCN(c2cc(=O)n(C(C)C)c(=O)n2C(C)C)CC1)N1C(=O)COc2ccccc21` (stereo not drawn) came in with an RP-LC retention time of 846 s.

`COc1ccc(-c2noc(C3CCCN3C(=O)Nc3cc(Cl)ccc3OC)n2)cc1` (stereo not drawn) displayed an RP-LC retention time of 1130 s.

Take `Cc1cccc(N2C(=O)CN(CCc3ccccc3F)[C@H]3CS(=O)(=O)C[C@H]32)c1`: the RP-LC retention time worked out at 840 s.

The molecule `CCC(=O)Nc1ccc2c(c1)CN(C(=O)c1ccc(Cl)cc1)C(C(=O)N1CCCC1)C2` (stereo not drawn) came in with an RP-LC retention time of 738 s.

For `COC(=O)c1cccc(C(=O)Nc2ccc(C)c(C)c2)n1`, the RP-LC retention time came to 910 s.

In turn, `O=C(c1ccco1)N1CCN(c2ccc(=O)n(-c3cccc(Cl)c3)n2)CC1` displayed an RP-LC retention time of 753 s.

Molecule `COc1ccc(CN2CCC3(CC2)CC(C)(O)CCO3)cc1OC` (stereo not drawn) yielded an RP-LC retention time of 583 s.

`CCc1ccccc1NC(=O)CSc1nc2nc(C)cc(C)n2n1` yielded an RP-LC retention time of 732 s.

`O=C(Cn1nc2c(cc1=O)CCCC2)Nc1ccc(N2CCCCS2(=O)=O)cc1` showed an RP-LC retention time of 720 s.

Regarding `Cc1cccc(NC(=O)N2CCC3(CC2)NC(=O)c2cc(F)ccc2N3C)c1`, the RP-LC retention time was found to be 748 s.

Consider `CCCC(=O)Nc1ccc2c(c1)Sc1ncccc1C(=O)N2CC`, for which the RP-LC retention time turned out to be 724 s.

For the molecule `Cn1c(=O)sc2cc(S(=O)(=O)N3CCC(C(=O)N4CCCC4)CC3)ccc21`, the RP-LC retention time worked out at 702 s.

For the molecule `CCOc1ccc(S(=O)(=O)N(CC(=O)N2CCNCC2)C(C)C)cc1`, the RP-LC retention time was found to be 625 s.

For the molecule `CS(=O)(=O)N1CCC(C(=O)NCc2ccccc2Cl)Oc2ccccc21` (stereo not drawn), the RP-LC retention time was determined as 888 s.

On to `CCOc1ccc(-c2noc(Cn3nc(-c4cccc(OC)c4)ccc3=O)n2)cc1`, for which the RP-LC retention time turned out to be 1070 s.

For the molecule `Cc1cccc(C)c1Nc1c(-c2c(F)cccc2Cl)nc2cnccn12`, the RP-LC retention time turned out to be 866 s.

`Cc1cc(C)cc(Oc2nccn3c(=O)n(CC(=O)NC(C)(C)C)nc23)c1` gave an RP-LC retention time of 859 s.

The molecule `CCCN(Cc1ccccc1)Cc1cc(=O)n2cc(Cl)ccc2n1` yielded an RP-LC retention time of 649 s.

In turn, `Cc1ccc(CN2CCc3nc(N4CCN(c5ccccc5F)CC4)ncc3C2)s1` gave an RP-LC retention time of 799 s.

`Cc1ccc(S(=O)(=O)N2CCc3c(c(-c4nnc(-c5ccc(F)cc5)o4)nn3C)C2)c(C)c1`: the RP-LC retention time came to 1060 s.

`COc1ccc(OC)c(S(=O)(=O)N2CCCC(C(=O)NCCC(C)C)C2)c1` (stereo not drawn) came in with an RP-LC retention time of 863 s.

`CCCCNC(=O)C1CCN(c2nc3ccc(-c4cncnc4)nc3s2)CC1`: the RP-LC retention time turned out to be 788 s.

The molecule `CCOc1ccc(-c2csc(NC(=O)CS(=O)(=O)c3ccc(Cl)cc3)n2)cc1` gave an RP-LC retention time of 1070 s.

`OC(c1ccccc1)(c1ccccc1)c1nccn1-c1ccccc1` showed an RP-LC retention time of 754 s.

`O=C(NCc1ccc(Cl)cc1)c1ccc2ccnc(N3CCN(C(=O)c4ccco4)CC3)c2c1` returned an RP-LC retention time of 739 s.
